Laboratory results taken from PMC7038975 (Nucleic Acids Research, 2019).

Biological target: dihydropyrimidinase (DHP) (Homo sapiens, UniProt Q14117)
Assay: HPLC assay of […],6-dihydrouracil
Format: biochemical

dihydropyrimidinase (DHP), sequence (Q14117 whole entry): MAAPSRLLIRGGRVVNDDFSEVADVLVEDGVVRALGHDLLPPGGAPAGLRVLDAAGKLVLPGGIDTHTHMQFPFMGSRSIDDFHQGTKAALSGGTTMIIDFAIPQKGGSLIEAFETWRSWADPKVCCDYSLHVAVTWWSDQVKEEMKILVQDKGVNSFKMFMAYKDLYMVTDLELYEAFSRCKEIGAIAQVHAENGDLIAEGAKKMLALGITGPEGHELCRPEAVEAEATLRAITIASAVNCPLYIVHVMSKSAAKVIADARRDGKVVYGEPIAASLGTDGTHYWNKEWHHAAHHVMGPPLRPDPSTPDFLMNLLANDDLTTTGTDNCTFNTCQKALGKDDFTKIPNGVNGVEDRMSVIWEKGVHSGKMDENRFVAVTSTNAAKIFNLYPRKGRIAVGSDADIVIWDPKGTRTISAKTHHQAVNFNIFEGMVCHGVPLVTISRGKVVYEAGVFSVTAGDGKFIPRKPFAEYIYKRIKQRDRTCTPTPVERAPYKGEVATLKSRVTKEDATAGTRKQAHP

IC50: ~6 µM
SMILES: O=C1c2c(O)cc(O)cc2O[C@H](c2cc(O)c(O)c(O)c2)[C@H]1O [dihydromyricetin]
